These results are taken from patent publication US7074789B2, “Kinase inhibitors” (Amgen Inc., priority 1999, dated 2006).

Holding throughout (assay type): biochemical
One assay concerns the target T1, PDGFRB (Homo sapiens, UniProt P09619).
T1 construct: Kinases are expressed as either kinase domains or full length constructs; made in house
As to the kind of experiment: Kinase inhibition assay (33P transfer), PDGFRB. The note with it: read-out: PDGFRB-1.

The target in another assay is T2, Kdr (Homo sapiens, UniProt P35968).
T2 construct: Kinases are expressed as either kinase domains or full length constructs; made in house
Description: Kinase inhibition assay (33P transfer), Kdr. The note with it: Table 3, class symbols; read-out: KDR-1. A digest of the protocol: (§1)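 Filterless plate radiometric format: immobilized poly(Glu,Tyr) 4:1 or poly(Arg,Ser) 3:1, 33P-labelled ATP, tagged recombinant kinase (some with regulatory partners). Incorporated label counted after phosphoric acid wash.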

For another assay, the target named is T3, Itk (Homo sapiens, UniProt Q08881).
T3 construct: Kinases are expressed as either kinase domains or full length constructs; made in house
T3 sequence (Q08881 1-620): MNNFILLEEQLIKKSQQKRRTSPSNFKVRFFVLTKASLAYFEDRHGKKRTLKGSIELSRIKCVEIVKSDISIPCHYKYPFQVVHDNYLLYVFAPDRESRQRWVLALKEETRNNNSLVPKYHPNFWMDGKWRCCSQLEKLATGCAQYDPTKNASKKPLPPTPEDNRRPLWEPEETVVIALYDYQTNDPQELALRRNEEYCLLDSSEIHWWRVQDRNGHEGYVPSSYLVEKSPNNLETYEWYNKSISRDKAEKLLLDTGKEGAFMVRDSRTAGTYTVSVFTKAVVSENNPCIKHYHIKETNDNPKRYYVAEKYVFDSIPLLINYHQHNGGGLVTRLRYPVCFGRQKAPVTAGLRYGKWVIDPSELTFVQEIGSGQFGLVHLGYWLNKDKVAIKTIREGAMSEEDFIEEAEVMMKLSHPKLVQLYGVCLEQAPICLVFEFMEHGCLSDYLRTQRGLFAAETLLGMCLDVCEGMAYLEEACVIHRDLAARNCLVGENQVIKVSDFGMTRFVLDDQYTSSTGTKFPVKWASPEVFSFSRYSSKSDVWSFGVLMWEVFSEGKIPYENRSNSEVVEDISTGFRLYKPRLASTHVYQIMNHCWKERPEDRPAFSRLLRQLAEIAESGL
Description: Kinase inhibition assay (33P transfer), Itk. The conditions noted are these: Table 3, class symbols; read-out: Itk-1. The procedure, abridged: (§2)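 GST/His-fusion kinases, E. coli or High Five expressed, affinity purified; 33P-ATP, plate-coated poly(Glu,Tyr) 4:1 or poly(Arg,Ser) 3:1; 0.5% H3PO4 wash, scintillant, LSC.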

In another assay the target is T4, IGFR-1 (Homo sapiens, UniProt P08069).
T4 construct: Kinases are expressed as either kinase domains or full length constructs; made in house
Description: Kinase inhibition assay (33P transfer), IGFR-1. The conditions noted are these: Table 2, class symbols A-E.

In another assay the target is T5, AKT (Homo sapiens, UniProt Q9Y243).
T5 construct: Kinases are expressed as either kinase domains or full length constructs; made in house
Description: Kinase inhibition assay (33P transfer), AKT. The conditions noted are these: Table 2, class symbols A-E; read-out: AKT3-1. The procedure, abridged:
as §1

The next assay concerns the target T6, c-Met (Homo sapiens, UniProt P08581).
T6 construct: Kinases are expressed as either kinase domains or full length constructs; made in house
Description: Kinase inhibition assay (33P transfer), c-Met. The note with it: Table 2, class symbols A-E; read-out: Met-1. The procedure, abridged:
as §2

The target in the next assay is T7, Zap-70 (Homo sapiens, UniProt P43403).
T7 construct: Kinases are expressed as either kinase domains or full length constructs; made in house
T7 sequence (P43403 1-619): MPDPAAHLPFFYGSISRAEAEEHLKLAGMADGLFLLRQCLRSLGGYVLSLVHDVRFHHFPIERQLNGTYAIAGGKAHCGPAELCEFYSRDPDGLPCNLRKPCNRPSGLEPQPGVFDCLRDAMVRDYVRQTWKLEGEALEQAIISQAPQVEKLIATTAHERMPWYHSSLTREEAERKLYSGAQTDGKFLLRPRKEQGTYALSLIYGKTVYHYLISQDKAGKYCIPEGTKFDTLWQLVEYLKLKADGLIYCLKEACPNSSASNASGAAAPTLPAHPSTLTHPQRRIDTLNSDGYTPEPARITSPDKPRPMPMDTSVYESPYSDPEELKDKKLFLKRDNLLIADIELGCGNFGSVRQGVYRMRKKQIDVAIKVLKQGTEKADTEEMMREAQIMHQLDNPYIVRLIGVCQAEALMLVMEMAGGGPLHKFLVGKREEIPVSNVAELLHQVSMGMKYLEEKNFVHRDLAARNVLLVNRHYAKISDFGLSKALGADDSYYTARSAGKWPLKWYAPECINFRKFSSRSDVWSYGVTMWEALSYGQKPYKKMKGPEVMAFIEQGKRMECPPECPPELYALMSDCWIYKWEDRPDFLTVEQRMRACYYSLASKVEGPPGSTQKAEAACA
As to the kind of experiment: Kinase inhibition assay (33P transfer), Zap-70. The note with it: Table 3, class symbols; read-out: Zap-1. A digest of the protocol:
as §1

In the next assay the target is T8, Lck (Homo sapiens, UniProt P06239).
T8 construct: Kinases are expressed as either kinase domains or full length constructs; made in house
Description: Kinase inhibition assay (33P transfer), Lck. The note with it: Table 3, class symbols; read-out: Lck-1. A digest of the protocol: as §1

For a further assay, the target named is T9, EGFR (Homo sapiens, UniProt P00533).
T9 construct: Kinases are expressed as either kinase domains or full length constructs; made in house
Description: Kinase inhibition assay (33P transfer), EGFR. The note with it: Table 2, class symbols A-E; read-out: EGFR-1. The procedure, abridged: as §2

The target of another assay is T10, ErbB2 (Homo sapiens, UniProt P04626).
T10 construct: Kinases are expressed as either kinase domains or full length constructs; made in house
Description: Kinase inhibition assay (33P transfer), ErbB2. The note with it: read-out: ErbB2-2. A digest of the protocol: as §2

T10 sequence (P04626 23-1255, species assumed): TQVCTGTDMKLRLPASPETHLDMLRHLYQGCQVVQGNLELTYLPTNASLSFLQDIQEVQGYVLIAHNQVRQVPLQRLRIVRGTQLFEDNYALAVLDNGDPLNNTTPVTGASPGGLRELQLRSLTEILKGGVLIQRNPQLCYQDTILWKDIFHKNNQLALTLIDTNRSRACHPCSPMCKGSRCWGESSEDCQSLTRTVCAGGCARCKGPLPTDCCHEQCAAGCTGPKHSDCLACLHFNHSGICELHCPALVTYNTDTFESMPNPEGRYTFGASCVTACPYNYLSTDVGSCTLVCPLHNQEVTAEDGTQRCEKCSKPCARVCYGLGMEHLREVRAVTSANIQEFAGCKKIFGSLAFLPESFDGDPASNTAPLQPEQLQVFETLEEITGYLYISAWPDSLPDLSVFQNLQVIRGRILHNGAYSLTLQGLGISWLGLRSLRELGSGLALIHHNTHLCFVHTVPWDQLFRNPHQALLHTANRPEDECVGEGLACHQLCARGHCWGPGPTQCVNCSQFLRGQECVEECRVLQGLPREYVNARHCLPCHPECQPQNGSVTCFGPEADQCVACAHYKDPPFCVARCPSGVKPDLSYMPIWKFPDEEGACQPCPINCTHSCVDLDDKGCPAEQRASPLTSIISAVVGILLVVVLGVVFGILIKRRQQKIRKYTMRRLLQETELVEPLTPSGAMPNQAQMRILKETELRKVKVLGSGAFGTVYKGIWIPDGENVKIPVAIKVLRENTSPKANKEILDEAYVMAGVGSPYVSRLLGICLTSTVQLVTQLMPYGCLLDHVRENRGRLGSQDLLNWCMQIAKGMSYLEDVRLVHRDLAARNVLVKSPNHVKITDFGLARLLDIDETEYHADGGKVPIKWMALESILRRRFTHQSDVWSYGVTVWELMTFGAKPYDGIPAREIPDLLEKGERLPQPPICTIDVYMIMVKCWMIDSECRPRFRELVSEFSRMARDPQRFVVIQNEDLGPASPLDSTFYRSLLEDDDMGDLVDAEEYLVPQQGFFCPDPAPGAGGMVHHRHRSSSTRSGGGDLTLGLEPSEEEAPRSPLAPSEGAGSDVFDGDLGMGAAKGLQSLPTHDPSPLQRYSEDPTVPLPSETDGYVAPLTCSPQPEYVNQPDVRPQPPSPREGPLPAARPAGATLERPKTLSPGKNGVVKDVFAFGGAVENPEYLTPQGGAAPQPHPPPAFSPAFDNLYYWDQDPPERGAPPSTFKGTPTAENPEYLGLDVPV
T9 sequence (P00533 25-1210, species assumed): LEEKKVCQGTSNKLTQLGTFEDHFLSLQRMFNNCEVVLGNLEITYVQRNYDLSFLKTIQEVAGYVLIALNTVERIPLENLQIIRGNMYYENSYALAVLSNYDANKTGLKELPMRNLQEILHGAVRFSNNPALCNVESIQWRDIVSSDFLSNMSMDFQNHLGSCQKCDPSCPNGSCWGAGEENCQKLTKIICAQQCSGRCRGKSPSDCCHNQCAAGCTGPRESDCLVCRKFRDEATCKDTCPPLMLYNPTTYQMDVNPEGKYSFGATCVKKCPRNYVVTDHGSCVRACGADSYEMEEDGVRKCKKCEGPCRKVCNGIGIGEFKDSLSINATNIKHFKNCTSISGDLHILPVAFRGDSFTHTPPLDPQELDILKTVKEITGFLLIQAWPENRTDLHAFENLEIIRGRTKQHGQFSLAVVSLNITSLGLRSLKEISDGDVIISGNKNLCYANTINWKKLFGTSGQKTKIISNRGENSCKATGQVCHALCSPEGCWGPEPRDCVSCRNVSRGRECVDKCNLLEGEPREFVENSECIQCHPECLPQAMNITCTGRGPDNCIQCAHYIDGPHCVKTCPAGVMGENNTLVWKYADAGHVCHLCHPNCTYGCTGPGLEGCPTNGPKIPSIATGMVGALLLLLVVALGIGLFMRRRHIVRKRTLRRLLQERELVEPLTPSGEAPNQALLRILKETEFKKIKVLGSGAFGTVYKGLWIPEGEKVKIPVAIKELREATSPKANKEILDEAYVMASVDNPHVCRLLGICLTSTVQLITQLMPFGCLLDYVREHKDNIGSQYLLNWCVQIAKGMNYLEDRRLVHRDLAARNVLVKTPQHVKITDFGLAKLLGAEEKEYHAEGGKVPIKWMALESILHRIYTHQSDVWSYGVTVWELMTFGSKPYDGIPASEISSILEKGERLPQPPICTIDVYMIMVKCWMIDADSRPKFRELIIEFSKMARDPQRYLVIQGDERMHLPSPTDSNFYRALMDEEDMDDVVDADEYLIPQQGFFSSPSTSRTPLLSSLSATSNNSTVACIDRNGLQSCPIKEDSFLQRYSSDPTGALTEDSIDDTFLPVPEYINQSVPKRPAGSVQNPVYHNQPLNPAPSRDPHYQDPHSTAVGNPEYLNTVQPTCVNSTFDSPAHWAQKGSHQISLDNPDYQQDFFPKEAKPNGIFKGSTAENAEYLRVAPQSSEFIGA
T6 sequence (P08581 25-1390): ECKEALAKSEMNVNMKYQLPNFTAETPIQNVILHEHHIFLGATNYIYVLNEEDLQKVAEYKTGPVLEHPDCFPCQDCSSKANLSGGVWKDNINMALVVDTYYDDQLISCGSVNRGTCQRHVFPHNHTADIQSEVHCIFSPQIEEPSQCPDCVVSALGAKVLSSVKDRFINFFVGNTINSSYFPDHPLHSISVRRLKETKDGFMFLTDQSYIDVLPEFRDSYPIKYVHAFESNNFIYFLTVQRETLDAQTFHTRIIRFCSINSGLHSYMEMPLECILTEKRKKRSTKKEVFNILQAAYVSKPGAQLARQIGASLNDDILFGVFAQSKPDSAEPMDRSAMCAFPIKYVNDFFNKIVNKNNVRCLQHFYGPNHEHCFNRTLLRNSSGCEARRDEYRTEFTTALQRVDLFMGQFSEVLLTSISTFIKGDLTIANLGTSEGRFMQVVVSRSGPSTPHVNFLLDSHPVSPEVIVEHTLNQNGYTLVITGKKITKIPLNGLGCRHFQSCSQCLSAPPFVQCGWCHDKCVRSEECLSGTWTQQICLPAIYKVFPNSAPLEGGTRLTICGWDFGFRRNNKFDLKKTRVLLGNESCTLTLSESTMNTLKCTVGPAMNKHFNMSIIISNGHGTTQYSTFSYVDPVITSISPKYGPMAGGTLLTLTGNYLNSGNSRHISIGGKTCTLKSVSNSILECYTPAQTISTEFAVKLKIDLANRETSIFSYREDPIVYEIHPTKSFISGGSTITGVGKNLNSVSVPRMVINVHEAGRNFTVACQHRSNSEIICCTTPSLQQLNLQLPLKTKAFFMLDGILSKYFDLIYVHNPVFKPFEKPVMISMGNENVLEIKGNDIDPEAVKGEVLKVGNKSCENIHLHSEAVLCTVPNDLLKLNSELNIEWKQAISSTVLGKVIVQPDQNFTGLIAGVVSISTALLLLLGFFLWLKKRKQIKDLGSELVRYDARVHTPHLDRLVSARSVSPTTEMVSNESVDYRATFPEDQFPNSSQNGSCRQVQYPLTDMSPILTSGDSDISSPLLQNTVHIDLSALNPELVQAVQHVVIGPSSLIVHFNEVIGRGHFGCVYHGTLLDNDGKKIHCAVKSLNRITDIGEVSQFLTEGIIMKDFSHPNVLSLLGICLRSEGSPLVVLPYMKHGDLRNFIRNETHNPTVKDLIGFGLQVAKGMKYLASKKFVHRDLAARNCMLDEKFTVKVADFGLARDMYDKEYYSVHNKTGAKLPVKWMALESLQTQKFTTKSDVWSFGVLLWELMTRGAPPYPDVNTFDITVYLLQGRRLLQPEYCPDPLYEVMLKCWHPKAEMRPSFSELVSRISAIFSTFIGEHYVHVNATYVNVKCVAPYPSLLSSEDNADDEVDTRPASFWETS
T4 sequence (P08069 31-1367): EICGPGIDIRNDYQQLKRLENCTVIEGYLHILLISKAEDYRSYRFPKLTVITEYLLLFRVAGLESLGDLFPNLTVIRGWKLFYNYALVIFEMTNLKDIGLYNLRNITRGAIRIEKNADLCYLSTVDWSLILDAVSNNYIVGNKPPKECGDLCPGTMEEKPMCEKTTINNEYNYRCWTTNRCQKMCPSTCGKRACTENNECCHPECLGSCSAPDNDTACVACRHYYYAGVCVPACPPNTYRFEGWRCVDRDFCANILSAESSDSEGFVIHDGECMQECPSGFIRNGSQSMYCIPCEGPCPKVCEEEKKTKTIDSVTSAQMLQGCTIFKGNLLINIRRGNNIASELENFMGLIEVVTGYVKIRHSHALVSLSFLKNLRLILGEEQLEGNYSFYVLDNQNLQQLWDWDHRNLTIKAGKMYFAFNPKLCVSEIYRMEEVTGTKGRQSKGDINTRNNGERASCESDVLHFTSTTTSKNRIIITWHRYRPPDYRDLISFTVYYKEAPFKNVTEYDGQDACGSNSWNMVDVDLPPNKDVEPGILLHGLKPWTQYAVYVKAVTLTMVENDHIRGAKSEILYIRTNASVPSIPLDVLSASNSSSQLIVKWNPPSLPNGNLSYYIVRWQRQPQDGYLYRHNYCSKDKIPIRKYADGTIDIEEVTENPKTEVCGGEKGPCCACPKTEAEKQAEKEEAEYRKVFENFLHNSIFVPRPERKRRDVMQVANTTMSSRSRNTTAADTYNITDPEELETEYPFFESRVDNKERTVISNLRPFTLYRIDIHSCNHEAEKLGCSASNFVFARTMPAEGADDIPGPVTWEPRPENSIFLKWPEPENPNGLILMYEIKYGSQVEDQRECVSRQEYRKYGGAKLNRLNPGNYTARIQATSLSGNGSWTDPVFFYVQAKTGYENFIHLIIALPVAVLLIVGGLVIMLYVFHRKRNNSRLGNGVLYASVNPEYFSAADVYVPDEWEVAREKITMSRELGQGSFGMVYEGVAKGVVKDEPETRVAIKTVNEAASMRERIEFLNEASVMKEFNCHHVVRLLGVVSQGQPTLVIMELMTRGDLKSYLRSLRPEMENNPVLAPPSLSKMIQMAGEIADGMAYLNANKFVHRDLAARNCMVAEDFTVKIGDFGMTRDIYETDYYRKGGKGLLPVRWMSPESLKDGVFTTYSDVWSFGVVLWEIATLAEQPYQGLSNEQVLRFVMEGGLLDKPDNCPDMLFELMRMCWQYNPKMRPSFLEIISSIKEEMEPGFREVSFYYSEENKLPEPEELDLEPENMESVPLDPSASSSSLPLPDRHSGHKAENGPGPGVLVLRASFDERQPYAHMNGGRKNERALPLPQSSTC

Consider `O=C(O)CCc1cccc(Nc2ncnc(Nc3cc(-c4ccco4)[nH]n3)n2)c1` [Compound 887], for which the IC50 was 1.02 to 6.13 µM on PDGFRB; under 1.02 µM on Kdr; 6.13 to 8.94 µM at Itk; under 1.02 µM against IGFR-1; 1.02 to 6.13 µM at AKT; under 1.02 µM at c-Met. Also, the IC50 at Zap-70 is over 11.5 µM; at Lck, 1.02 to 6.13 µM; at EGFR, under 1.02 µM; at ErbB2 it was 1.02 to 6.13 µM.
With `CN(c1cccc(Br)c1)c1ncnc(Nc2cccc(Cc3nnn[nH]3)c2)n1` [Compound 670], the IC50 was 0.913 to 5.48 µM at PDGFRB; 0.913 to 5.48 µM at Kdr; over 10.3 µM on Itk; over 10.3 µM at IGFR-1; over 10.3 µM at AKT; under 0.913 µM at c-Met. For the same molecule, the IC50 on Zap-70 was over 10.3 µM; at Lck, 0.913 to 5.48 µM; at EGFR it was under 0.913 µM; at ErbB2, under 0.913 µM.
Regarding `c1ccc(-c2cc(Nc3ncnc(Nc4cccc(-c5cnco5)c4)n3)[nH]n2)cc1` [Compound 1010], the IC50 is 1.01 to 6.05 µM at PDGFRB; 1.01 to 6.05 µM on Kdr; 6.05 to 8.83 µM on Itk; under 1.01 µM at IGFR-1; 1.01 to 6.05 µM at AKT; under 1.01 µM at c-Met. For the same molecule, the IC50 on Zap-70 was over 11.4 µM; on Lck, 1.01 to 6.05 µM; on EGFR, 1.01 to 6.05 µM; on ErbB2, 1.01 to 6.05 µM.
With `CN(c1cccc(Cl)c1)c1ncnc(Nc2ccc3nn(C)cc3c2)n1` [Compound 675], the IC50 on PDGFRB was 1.09 to 6.56 µM; on Kdr it was 1.09 to 6.56 µM; at Itk it was over 12.3 µM; against IGFR-1, 6.56 to 9.57 µM; on AKT, over 12.3 µM; on c-Met, 1.09 to 6.56 µM. Moreover, the IC50 on Zap-70 was over 12.3 µM; at Lck, 1.09 to 6.56 µM; on EGFR, under 1.09 µM; at ErbB2 it was under 1.09 µM.
As for `CC(C)Nc1ncccc1-c1ncnc(Nc2cccc(CC(=O)O)c2)n1` [Compound 1097], the IC50 was under 1.1 µM at PDGFRB; 1.1 to 6.59 µM on Kdr; over 12.3 µM on Itk; over 12.3 µM against IGFR-1; over 12.3 µM on AKT; 6.59 to 9.6 µM at c-Met. Also, the IC50 is 6.59 to 9.6 µM on Zap-70, 1.1 to 6.59 µM on Lck, over 12.3 µM at EGFR and over 12.3 µM at ErbB2.
As to `CCOc1cccc(Nc2ncnc(N3CCCc4cc(C)ccc43)n2)c1` [Compound 892], the IC50 was under 1.11 µM at PDGFRB; 1.11 to 6.64 µM on Kdr; 9.68 to 12.4 µM at Itk; over 12.4 µM against IGFR-1; over 12.4 µM at AKT; 1.11 to 6.64 µM at c-Met. For the same molecule, the IC50 is over 12.4 µM on Zap-70, 1.11 to 6.64 µM at Lck, under 1.11 µM at EGFR and 1.11 to 6.64 µM at ErbB2.
As to `Cc1ccc(-c2cc(Nc3ncnc(Nc4cc(C)ccc4C)n3)[nH]n2)cc1` [Compound 1125], the IC50 at PDGFRB is 1.08 to 6.46 µM; at Kdr it was 1.08 to 6.46 µM; at Itk, under 1.08 µM; on IGFR-1 it was under 1.08 µM; on AKT, over 12.1 µM; at c-Met, 1.08 to 6.46 µM. Also, the IC50 at Zap-70 was over 12.1 µM; on Lck, under 1.08 µM; on EGFR, under 1.08 µM; at ErbB2 it was 1.08 to 6.46 µM.
Consider `COc1ccc(Nc2ncnc(N(C)c3ccc(S(=O)(=O)O)cc3)n2)cc1OC` [Compound 798], for which the IC50 on PDGFRB is 0.958 to 5.75 µM; at Kdr, 0.958 to 5.75 µM; on Itk it was over 10.8 µM; on IGFR-1, over 10.8 µM; at AKT, over 10.8 µM; at c-Met, 8.38 to 10.8 µM. Further, the IC50 at Zap-70, on Lck, at EGFR and on ErbB2 was over 10.8 µM throughout.
On to `Fc1cccc(CNc2nc3ccccc3n2-c2ncnc(Nc3cccc(Cn4ccnn4)c3)n2)c1` [Compound 964], for which the IC50 at PDGFRB is under 0.812 µM; at Kdr it was under 0.812 µM; at Itk it was 7.11 to 9.14 µM; on IGFR-1, over 9.14 µM; on AKT, over 9.14 µM; on c-Met, over 9.14 µM. The IC50 at Zap-70 was over 9.14 µM; at Lck, 4.87 to 7.11 µM; on EGFR, 0.812 to 4.87 µM; at ErbB2 it was 4.87 to 7.11 µM.
In the case of `COc1cccc(CCNc2ncnc(Nc3ccc4c(cnn4Cc4ccccc4)c3)n2)c1OC` [Compound 873], the IC50 on PDGFRB, on Kdr, on Itk, against IGFR-1, at AKT and on c-Met was over 9.34 µM each time. Moreover, the IC50 at Zap-70, at Lck, on EGFR and at ErbB2 was over 9.34 µM each time.
As to `COc1cc(Nc2ncnc(-c3cccnc3Nc3ccc(Cl)cc3C)n2)cc(OC)c1OC` [Compound 834], the IC50 was under 0.835 µM at PDGFRB; 0.835 to 5.01 µM at Kdr; over 9.4 µM on Itk; over 9.4 µM against IGFR-1; over 9.4 µM at AKT; over 9.4 µM on c-Met. In addition, the IC50 at Zap-70, at Lck, at EGFR and on ErbB2 was over 9.4 µM in each case.
Take `c1cc(Nc2ncnc(Nc3cc(-c4ccco4)[nH]n3)n2)cc(-c2cnco2)c1` [Compound 824]: the IC50 on PDGFRB, on Kdr, at Itk, against IGFR-1, on AKT and on c-Met was under 1.04 µM throughout. In addition, the IC50 on Zap-70 is 1.04 to 6.21 µM; at Lck it was 1.04 to 6.21 µM; on EGFR it was under 1.04 µM; on ErbB2, under 1.04 µM.
Turning to `c1ccc(CNc2ncnc(Nc3cc(-c4ccco4)n[nH]3)n2)nc1` [Compound 995], the IC50 at PDGFRB is 1.2 to 7.18 µM; on Kdr, 7.18 to 10.5 µM; at Itk it was 10.5 to 13.5 µM; against IGFR-1, 7.18 to 10.5 µM; on AKT it was over 13.5 µM; on c-Met it was over 13.5 µM. Moreover, the IC50 on Zap-70 is over 13.5 µM; at Lck, over 13.5 µM; at EGFR it was 1.2 to 7.18 µM; at ErbB2, over 13.5 µM.
Regarding `COc1cc(Nc2ncnc(N3CCCc4ccc(Cl)cc43)n2)cc(OC)c1OC` [Compound 645], the IC50 on PDGFRB, at Kdr, on Itk, on IGFR-1, at AKT and at c-Met was over 10.5 µM each time. In addition, the IC50 on Zap-70 is over 10.5 µM; on Lck it was over 10.5 µM; at EGFR, under 0.935 µM; at ErbB2, under 0.935 µM.
